Measurements reported in patent publication US10450316B2, “Certain protein kinase inhibitor” (Chongqing Fochon Pharmaceutical Co., Ltd., priority 2015, dated 2019).

Tested on: BE(2)-C cell
Experiment: Cell proliferation assay (MTS) in BE(2)-C cells
Format: cell-based
Conditions: Homo sapiens, inhibition of BE(2)-C cell proliferation, 48 h
In short: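 Proliferation read-out was MTS absorbance at 490 nm, with 650 nm as reference, after a 2 h MTS incubation, giving IC50 values. Before reading, BE(2)-C cells plated at 3000 per well were exposed to nine compound concentrations from 10000 down to 1.5 nM for 48 h at 37 °C, 5% CO2.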

Row | Structure (SMILES) | IC50
1 | CN1CC2(C1)CN(Cc1ccc(Nc3ncc(F)c(-c4cc(F)c5nc6n(c5c4)[C@H](C(F)F)CC6)n3)nc1)C2 [Example 46, (S)-4-(1-(difluoromethyl)-5-fluoro-2,3-dihydro-1H-benzo[d]pyrrolo[1,2-a]imidazol-7-yl)-5-fluoro-N-(5-((6-methyl-2,6-diazaspiro[3.3]heptan-2-yl)methyl)pyridin-2-yl)pyrimidin-2-amine] | 10 to 100 nM
2 | CCN1CCC2(CC1)CCN(Cc1ccc(Nc3ncc(F)c(-c4cc(F)c5nc6n(c5c4)[C@H](C(F)F)CC6)n3)nc1)CC2 [Example 53, (S)-4-(1-(difluoromethyl)-5-fluoro-2,3-dihydro-1H-benzo[d]pyrrolo[1,2-a]imidazol-7-yl)-N-(5-((9-ethyl-3,9-diazaspiro[5.5]undecan-3-yl)methyl)pyridin-2-yl)-5-fluoropyrimidin-2-amine] | > 100 nM
3 | CCN1CC2(CCN(Cc3ccc(Nc4ncc(F)c(-c5cc(F)c6nc7n(c6c5)[C@H](C(F)(F)F)CC7)n4)nc3)CC2)C1 [Example 66] | 10 to 100 nM
4 | FC[C@@H]1CCc2nc3c(F)cc(-c4nc(Nc5ccc(CN6CC7CCC(C6)N7)cn5)ncc4F)cc3n21 [Example 35, N-(5-((3,8-diazabicyclo[3.2.1]octan-3-yl)methyl)pyridin-2-yl)-5-fluoro-4-((5)-5-fluoro-1-(fluoro-methyl)-2,3-dihydro-1H-benzo[d]pyrrolo[1,2-a]imidazol-7-yl)pyrimidin-2-amine] | > 100 nM
5 | C[C@@H]1CCc2nc3c(F)cc(-c4nc(Nc5ccc(CN6CCC7(CC6)CN(C)C7)cn5)ncc4F)cc3n21 [Example 87, (R)-5-fluoro-4-(5-fluoro-1-methyl-2,3-dihydro-1H-benzo[d]pyrrolo[1,2-a]imidazol-7-yl)-N-(5-((2-methyl-2,7-diazaspiro[3.5]nonan-7-yl)methyl)pyridin-2-yl)pyrimidin-2-amine] | 10 to 100 nM
6 | CCN1CC2CCC(C1)N2Cc1ccc(Nc2ncc(F)c(-c3cc(F)c4nc5n(c4c3)[C@H](C(F)(F)F)CC5)n2)nc1 [Example 78, N-(5-((3-ethyl-3,8-diazabicyclo[3.2.1]octan-8-yl)methyl)pyridin-2-yl)-5-fluoro-4-((S)-5-fluoro-1-(trifluoromethyl)-2,3-dihydro-1H-benzo[d]pyrrolo [1,2-a]imidazol-7-yl)pyrimidin-2-amine] | 10 to 100 nM
7 | CCN1CC2(C1)CN(Cc1ccc(Nc3ncc(F)c(-c4cc(F)c5nc6n(c5c4)[C@H](CF)CC6)n3)nc1)C2 [Example 25, (S)-N-(5-((6-ethyl-2,6-diazaspiro[3.3]heptan-2-yl)methyl)pyridin-2-yl)-5-fluoro-4-(5-fluoro-1-(fluoromethyl)-2,3-dihydro-1H-benzo[d]pyrrolo[1,2-a]imidazol-7-yl)pyrimidin-2-amine] | 10 to 100 nM
8 | CC1(C)CCc2nc3c(F)cc(-c4nc(Nc5ccc(CN6CC7CNCC7C6)cn5)ncc4F)cc3n21 (stereo not shown) [Example 123, 5-fluoro-4-(5-fluoro-1,1-dimethyl-2,3-dihydro-1H-benzo[d]pyrrolo[1,2-a]imidazol-7-yl)-N-(5-((hexahydropyrrolo[3,4-c]pyrrol-2(1H)-yl)methyl)pyridin-2-yl)pyrimidin-2-amine] | > 100 nM
9 | CCN1CCC2(CC1)CN(Cc1ccc(Nc3ncc(F)c(-c4cc(F)c5nc6n(c5c4)[C@H](C)CC6)n3)nc1)C2 [Example 91, (R)-N-(5-((7-ethyl-2,7-diazaspiro[3.5]nonan-2-yl)methyl)pyridin-2-yl)-5-fluoro-4-(5-fluoro-1-methyl-2,3-dihydro-1H-benzo[d]pyrrolo[1,2-a]imidazol-7-yl)pyrimidin-2-amine] | 10 to 100 nM
10 | C[C@@H]1CCc2nc3c(F)cc(-c4nc(Nc5ccc(CN6CCN7CCC[C@@H]7C6)cn5)ncc4F)cc3n21 [Example 85, 5-fluoro-4-((R)-5-fluoro-1-methyl-2,3-dihydro-1H-benzo[d]pyrrolo[1,2-a]imidazol-7-yl)-N-(5-(((R)-hexahydropyrrolo[1,2-a]pyrazin-2(1H)-yl)methyl)pyridin-2-yl)pyrimidin-2-amine] | 10 to 100 nM
11 | Fc1cnc(Nc2ccc(CN3C4CCC3CNC4)cn2)nc1-c1cc(F)c2nc3n(c2c1)[C@H](C(F)(F)F)CC3 [Example 76, N-(5-((3,8-diazabicyclo[3.2.1]octan-8-yl)methyl)pyridin-2-yl)-5-fluoro-4-((S)-5-fluoro-1-(trifluoro-methyl)-2,3-dihydro-1H-benzo[d]pyrrolo[1,2-a]imidazol-7-yl)pyrimidin-2-amine] | 10 to 100 nM
12 | C[C@@H]1CCc2nc3c(F)cc(-c4nc(Nc5ccc(CN6CC7(CCN(C)CC7)C6)cn5)ncc4F)cc3n21 [Example 90, (R)-5-fluoro-4-(5-fluoro-1-methyl-2,3-dihydro-1H-benzo[d]pyrrolo[1,2-a]imidazol-7-yl)-N-(5-((7-methyl-2,7-diazaspiro[3.5]nonan-2-yl)methyl)pyridin-2-yl)pyrimidin-2-amine] | 10 to 100 nM
13 | FC[C@@H]1CCc2nc3c(F)cc(-c4nc(Nc5ccc(CN6CC7(CCNCC7)C6)cn5)ncc4F)cc3n21 [Example 20, (S)-N-(5-((2,7-diazaspiro[3.5]nonan-2-yl)methyl)pyridin-2-yl)-5-fluoro-4-(5-fluoro-1-(fluoro-methyl)-2,3-dihydro-1H-benzo[d]pyrrolo[1,2-a]imidazol-7-yl)pyrimidin-2-amine] | > 1000 nM
14 | CC1(C)CCc2nc3c(F)cc(-c4nc(Nc5ccc(CN6CC7(CNC7)C6)cn5)ncc4F)cc3n21 [Example 117, N-(5-((2,6-diazaspiro[3.3]heptan-2-yl)methyl)pyridin-2-yl)-5-fluoro-4-(5-fluoro-1,1-dimethyl-2,3-dihydro-1H-benzo[d]pyrrolo[1,2-a]imidazol-7-yl)pyrimidin-2-amine] | > 100 nM
15 | CC1(C)CCc2nc3c(F)cc(-c4nc(Nc5ccc(CN6CC7(CCNCC7)C6)cn5)ncc4F)cc3n21 [Example 111, N-(5-((2,7-diazaspiro[3.5]nonan-2-yl)methyl)pyridin-2-yl)-5-fluoro-4-(5-fluoro-1,1-dimethyl-2,3-dihydro-1H-benzo[d]pyrrolo[1,2-a]imidazol-7-yl)pyrimidin-2-amine] | > 100 nM
16 | CN1CCC2(CC1)CN(Cc1ccc(Nc3ncc(F)c(-c4cc(F)c5nc6n(c5c4)C(C)(C)CC6)n3)nc1)C2 [Example 112, 5-fluoro-4-(5-fluoro-1,1-dimethyl-2,3-dihydro-1H-benzo[d]pyrrolo[1,2-a]imidazol-7-yl)-N-(5-((7-methyl-2,7-diazaspiro[3.5]nonan-2-yl)methyl)pyridin-2-yl)pyrimidin-2-amine] | < 10 nM
17 | CN1CC2CCC(C1)N2Cc1ccc(Nc2cc(-c3cc(F)c4nc5n(c4c3)C(C)(C)CC5)c(F)cn2)nc1 [Example 162, 5-fluoro-4-(5-fluoro-1,1-dimethyl-2,3-dihydro-1H-benzo[d]pyrrolo[1,2-a]imidazol-7-yl)-N-(5-((3-methyl-3,8-diazabicyclo[3.2.1]octan-8-yl)methyl)pyridin-2-yl)pyridin-2-amine] | > 1000 nM
18 | CN1CCN(Cc2ccc(Nc3ncc(F)c(-c4cc(F)c5nc6n(c5c4)CCC6)n3)nc2)CC1 [Example 150, 5-fluoro-4-(5-fluoro-2,3-dihydro-1H-benzo[d]pyrrolo[1,2-a]imidazol-7-yl)-N-(5-((4-methyl-piperazin-1-yl)methyl)pyridin-2-yl)pyrimidin-2-amine] | 10 to 100 nM
19 | FC[C@@H]1CCc2nc3c(F)cc(-c4nc(Nc5ccc(CN6CCN7CCC[C@@H]7C6)cn5)ncc4F)cc3n21 [Example 19, 5-fluoro-4-((S)-5-fluoro-1-(fluoromethyl)-2,3-dihydro-1H-benzo[d]pyrrolo[1,2-a]imidazol-7-yl)-N-(5-(((R)-hexahydropyrrolo[1,2-a]pyrazin-2(1H)-yl)methyl)pyridin-2-yl)pyrimidin-2-amine] | < 10 nM
20 | CN1CCN(Cc2ccc(Nc3ncc(F)c(-c4cc(F)c5nc6n(c5c4)[C@H](CO)CC6)n3)nc2)CC1 [Example 2, (S)-(5-fluoro-7-(5-fluoro-2-((5-((4-methylpiperazin-1-yl)methyl)pyridin-2-yl)amino)pyrimidin-4-yl)-2,3-dihydro-1H-benzo[d]pyrrolo[1,2-a]imidazol-1-yl)methanol] | > 100 nM
21 | CN1CC2(C1)CN(Cc1ccc(Nc3ncc(F)c(-c4cc(F)c5nc6n(c5c4)C(C)(C)CC6)n3)nc1)C2 [Example 118, 5-fluoro-4-(5-fluoro-1,1-dimethyl-2,3-dihydro-1H-benzo[d]pyrrolo[1,2-a]imidazol-7-yl)-N-(5-((6-methyl-2,6-diazaspiro[3.3]heptan-2-yl)methyl)pyridin-2-yl)pyrimidin-2-amine] | 10 to 100 nM
22 | CCN1CC2(C1)CN(Cc1ccc(Nc3ncc(F)c(-c4cc(F)c5nc6n(c5c4)[C@H](C(F)F)CC6)n3)nc1)C2 [Example 47, (S)-4-(1-(difluoromethyl)-5-fluoro-2,3-dihydro-1H-benzo[d]pyrrolo[1,2-a]imidazol-7-yl)-N-(5-((6-ethyl-2,6-diazaspiro[3.3]heptan-2-yl)methyl)pyridin-2-yl)-5-fluoropyrimidin-2-amine] | 10 to 100 nM
23 | COC[C@H]1CCc2nc3c(F)cc(-c4nc(Nc5ccc(CN6CCNCC6)cn5)ncc4F)cc3n21 [Example 158, (R)-5-fluoro-4-(5-fluoro-1-(methoxymethyl)-2,3-dihydro-1H-benzo[d]pyrrolo[1,2-a]imidazol-7-yl)-N-(5-(piperazin-1-ylmethyl)pyridin-2-yl)pyrimidin-2-amine] | > 1000 nM
24 | CN1CCC2(CC1)CCN(Cc1ccc(Nc3ncc(F)c(-c4cc(F)c5nc6n(c5c4)[C@H](C(F)F)CC6)n3)nc1)CC2 [Example 52, (S)-4-(1-(difluoromethyl)-5-fluoro-2,3-dihydro-1H-benzo[d]pyrrolo[1,2-a]imidazol-7-yl)-5-fluoro-N-(5-((9-methyl-3,9-diazaspiro[5.5]undecan-3-yl)methyl)pyridin-2-yl)pyrimidin-2-amine] | > 100 nM
25 | CCN1C2CCC1CN(Cc1ccc(Nc3ncc(F)c(-c4cc(F)c5nc6n(c5c4)[C@H](CF)CC6)n3)nc1)C2 [Example 37, N-(5-((8-ethyl-3,8-diazabicyclo[3.2.1]octan-3-yl)methyl)pyridin-2-yl)-5-fluoro-4-((S)-5-fluoro-1-(fluoromethyl)-2,3-dihydro-1H-benzo[d]pyrrolo[1,2-a]imidazol-7-yl)pyrimidin-2-amine] | 10 to 100 nM
